The values that follow come from PMC9516332 (Frontiers in Oncology, 2022).

Holding throughout (assay): Kinase panel profiling at 1 µmol/L (MSA or IMAP), percentage inhibition
Common to all, as to type: biochemical

The target in experiment [1] is panel of 255 wild-type kinases (Homo sapiens, UniProt P48729). The following applies: read-out: %-inhibition at 1 µmol/L, CK1α.
The target in experiment [2] is panel of 255 wild-type kinases (Homo sapiens, UniProt P49674). The following applies: read-out: %-inhibition at 1 µmol/L, CK1ε.
For experiment [3], the target named is panel of 255 wild-type kinases (Homo sapiens, UniProt O75582). The following applies: read-out: %-inhibition, MSK1.
Experiment [4] addresses panel of 255 wild-type kinases (Homo sapiens, UniProt Q13164). The following applies: read-out: %-inhibition at 1 µmol/L, Erk5.
The target of experiment [5] is panel of 255 wild-type kinases (Homo sapiens, UniProt P07332). The following applies: read-out: %-inhibition at 1 µmol/L, FES.
Experiment [6] has as its target panel of 255 wild-type kinases (Homo sapiens, UniProt P07949). The following applies: read-out: %-inhibition at 1 µmol/L, RET.
For experiment [7], the target named is panel of 255 wild-type kinases (Homo sapiens, UniProt Q16539). The following applies: read-out: %-inhibition, p38α.
In experiment [8] the target is panel of 255 wild-type kinases (Homo sapiens, UniProt Q9NYY3). The following applies: read-out: %-inhibition at 1 µmol/L, PLK2.
Experiment [9] has as its target panel of 255 wild-type kinases (Homo sapiens, UniProt Q07912). The following applies: read-out: %-inhibition ACK.
The target of experiment [10] is panel of 255 wild-type kinases (Homo sapiens, UniProt Q9Y3S1). The following applies: read-out: %-inhibition at 1 µmol/L, WNK2.
Experiment [11] deals with panel of 255 wild-type kinases (Homo sapiens, UniProt P16591). The following applies: read-out: %-inhibition at 1 µmol/L, FER.
Experiment [12] addresses panel of 255 wild-type kinases (Homo sapiens, UniProt O75116). The following applies: read-out: %-inhibition at 1 µmol/L, ROCK2.
In experiment [13] the target is panel of 255 wild-type kinases (Homo sapiens, UniProt P05771). The following applies: read-out: %-inhibition at 1 µmol/L, PKCβ1.
Experiment [14] deals with panel of 255 wild-type kinases (Homo sapiens, UniProt P54764). The following applies: read-out: %-inhibition at 1 µmol/L, EPHA4.
The target of experiment [15] is panel of 255 wild-type kinases (Homo sapiens, UniProt Q9H4A3). The following applies: read-out: %-inhibition at 1 µmol/L, WNK1.
Experiment [16] has as its target panel of 255 wild-type kinases (Homo sapiens, UniProt P17612). The following applies: read-out: %-inhibition at 1 µmol/L, PKACα.
Experiment [17] deals with panel of 255 wild-type kinases (Homo sapiens, UniProt P07333). The following applies: read-out: %-inhibition at 1 µmol/L, FMS.
Experiment [18] has as its target panel of 255 wild-type kinases (Homo sapiens, UniProt O43683). The following applies: read-out: %-inhibition BUB1/BUB3.
In experiment [19] the target is panel of 255 wild-type kinases (Homo sapiens, UniProt P16234). The following applies: read-out: %-inhibition at 1 µmol/L, PDGFRα.
Where [20] appears, read: kinase CK1α, 1 µmol/L single concentration.
Setting [21] is: kinase CK1ε, 1 µmol/L single concentration.
Where [22] appears, read: MSK1, 1 µmol/L single concentration.
Where [23] appears, read: kinase Erk5, 1 µmol/L single concentration.
The mark [24] stands for this setting: kinase FES, 1 µmol/L single concentration.
The mark [25] stands for this setting: kinase RET, 1 µmol/L single concentration.
Setting [26] is: p38α, 1 µmol/L single concentration.
[27] abbreviates: kinase PLK2, 1 µmol/L single concentration.
Setting [28] is: ACK kinase assay, 1 µmol/L single concentration.
Setting [29] is: kinase WNK2, 1 µmol/L single concentration.
The mark [30] stands for this setting: kinase FER, 1 µmol/L single concentration.
Where [31] appears, read: kinase ROCK2, 1 µmol/L single concentration.
Setting [32] is: kinase PKCβ1, 1 µmol/L single concentration.
Setting [33] is: kinase EPHA4, 1 µmol/L single concentration.
[34] abbreviates: kinase WNK1, 1 µmol/L single concentration.
Setting [35] is: kinase PKACα, 1 µmol/L single concentration.
Setting [36] is: kinase FMS, 1 µmol/L single concentration.
The mark [37] stands for this setting: BUB1/BUB3 kinase assay, 1 µmol/L single concentration.
Where [38] appears, read: kinase PDGFRα, 1 µmol/L single concentration.

Where two headings read alike, the source gives them in different places.

As to `CNC(=O)c1ccc(-c2cnc3ncc(Cc4ccc5ncccc5c4)n3n2)cc1F` [capmatinib], the inhibition at 1 µM in experiment [1] is -5.42%; in [2] it was -6%; in [3], 4%; in experiment [4] it was -3%; in experiment [5], -2%; in experiment [6], 11%. Besides, the inhibition at 1 µM in [7] is 3.37%; in experiment [8], 7%; in experiment [9] it was 1%; in experiment [10] it was -2.3%; in [11], 2.2%; in [12], -0.288%. Also, the inhibition at 1 µM in [13] is 1.2%; in [14], -2.77%; in [15], -5%; in experiment [16], -28%; in experiment [17], 13%; in experiment [18], 1.44%. In addition, the inhibition at 1 µM in [19] turned out to be 18%.
In the case of `COC(=O)N[C@@H](C)CNc1nccc(-c2cn(C(C)C)nc2-c2cc(Cl)cc(NS(C)(=O)=O)c2F)n1` [encorafenib], the inhibition at 1 µM in experiment [1] (setting [20]) is 36%; in experiment [2] (setting [21]), 15%; in experiment [3] (setting [22]), 11%; in [4] (setting [23]) it was 9%; in experiment [5] (setting [24]), 7%; in experiment [6] (setting [25]), -10%. For the same molecule, the inhibition at 1 µM in experiment [7] (setting [26]) was 35%; in [8] (setting [27]), -2.68%; in experiment [9] (setting [28]), -4.66%; in experiment [10] (setting [29]), -0.751%; in experiment [11] (setting [30]), 5%; in experiment [12] (setting [31]), 1.32%. Moreover, the inhibition at 1 µM in experiment [13] (setting [32]) is -1%; in experiment [14] (setting [33]) it was 10%; in experiment [15] (setting [34]) it was 0.0799%; in [16] (setting [35]) it was -10%; in experiment [17] (setting [36]) it was 8%; in experiment [18] (setting [37]), 6%. The inhibition at 1 µM in experiment [19] (setting [38]) came out at 4%.
Take `Cc1cc(Nc2ncnc3ccc(NC4=NC(C)(C)CO4)cc23)ccc1Oc1ccn2ncnc2c1` [tucatinib]: the inhibition at 1 µM in experiment [1] (setting [20]) was 0.588%; in [2] (setting [21]) it was 0.505%; in experiment [3] (setting [22]) it was 2.56%; in experiment [4] (setting [23]) it was -1.07%; in experiment [5] (setting [24]), 1.74%; in [6] (setting [25]), 35%. Further, the inhibition at 1 µM is 1.53% in experiment [7] (setting [26]); 7% in experiment [8] (setting [27]); 9% in experiment [9] (setting [28]); 0.536% in [10] (setting [29]); 1.35% in experiment [11] (setting [30]); -1.34% in experiment [12] (setting [31]). Moreover, the inhibition at 1 µM is 0.869% in [13] (setting [32]); -2.34% in experiment [14] (setting [33]); -4% in experiment [15] (setting [34]); -20% in [16] (setting [35]); 12% in experiment [17] (setting [36]); 0.842% in experiment [18] (setting [37]). The inhibition at 1 µM in [19] (setting [38]) is 30%.
Turning to `C=CC(=O)N1CCC([C@@H]2CCNc3c(C(N)=O)c(-c4ccc(Oc5ccccc5)cc4)nn32)CC1` [zanubrutinib], the inhibition at 1 µM was -0.607% in [1] (setting [20]); 4.32% in experiment [2] (setting [21]); 0.565% in experiment [3] (setting [22]); 3.76% in [4] (setting [23]); 1.42% in [5] (setting [24]); 16% in experiment [6] (setting [25]). In addition, the inhibition at 1 µM in experiment [7] (setting [26]) is -1.11%; in [8] (setting [27]) it was 0.329%; in experiment [9] (setting [28]), 11%; in experiment [10] (setting [29]) it was 2%; in experiment [11] (setting [30]) it was 0.0146%; in [12] (setting [31]) it was -3.24%. The inhibition at 1 µM in [13] (setting [32]) was 0.363%; in experiment [14] (setting [33]), -0.204%; in [15] (setting [34]) it was 0%; in experiment [16] (setting [35]) it was -13%; in experiment [17] (setting [36]), -7%; in experiment [18] (setting [37]), -6%. In addition, the inhibition at 1 µM in [19] (setting [38]) worked out at 11%.
Regarding `Cn1cnc2c(F)c(Nc3ccc(Br)cc3F)c(C(=O)NOCCO)cc21` [binimetinib], the inhibition at 1 µM in experiment [1] (setting [20]) is 9%; in experiment [2] (setting [21]) it was -3.48%; in [3] (setting [22]), 10%; in experiment [4] (setting [23]) it was -0.05%; in experiment [5] (setting [24]) it was 6%; in [6] (setting [25]), -6%. Besides, the inhibition at 1 µM in experiment [7] (setting [26]) is -8%; in [8] (setting [27]), -5%; in [9] (setting [28]), -4%; in [10] (setting [29]) it was -2.48%; in [11] (setting [30]) it was 4.71%; in [12] (setting [31]), -4%. Moreover, the inhibition at 1 µM in experiment [13] (setting [32]) was -3.39%; in [14] (setting [33]), 7.56%; in experiment [15] (setting [34]), -3.5%; in experiment [16] (setting [35]), -12%; in [17] (setting [36]), 7%; in experiment [18] (setting [37]) it was -3.43%. Also, the inhibition at 1 µM in [19] (setting [38]) came out at 2%.
`COc1ccc(CN2C3CC2CN(c2ccc(-c4cc(OCC(C)(C)O)cn5ncc(C#N)c45)cn2)C3)cn1` [selpercatinib]: the inhibition at 1 µM in [1] (setting [20]) is 25%; in experiment [2] (setting [21]), 2.36%; in experiment [3] (setting [22]), 24%; in [4] (setting [23]) it was 4%; in experiment [5] (setting [24]) it was 15%; in experiment [6] (setting [25]), 102%. Besides, the inhibition at 1 µM was -0.132% in [7] (setting [26]); 4% in experiment [8] (setting [27]); 4.48% in experiment [9] (setting [28]); -2.37% in [10] (setting [29]); 35% in experiment [11] (setting [30]); -0.275% in experiment [12] (setting [31]). Further, the inhibition at 1 µM in experiment [13] (setting [32]) is -0.445%; in experiment [14] (setting [33]), 58%; in experiment [15] (setting [34]), -10%; in experiment [16] (setting [35]), -5%; in [17] (setting [36]) it was 79%; in [18] (setting [37]) it was 19%. For the same molecule, the inhibition at 1 µM in experiment [19] (setting [38]) was found to be 96%.
Take `CCN1C(=O)N(c2c(F)c(OC)cc(OC)c2F)Cc2cnc3[nH]c(CN4CCOCC4)cc3c21` [pemigatinib]: the inhibition at 1 µM is 2.22% in [1] (setting [20]); 1.32% in experiment [2] (setting [21]); 3.7% in experiment [3] (setting [22]); 97% in [4] (setting [23]); 1.55% in experiment [5] (setting [24]); 55% in experiment [6] (setting [25]). Moreover, the inhibition at 1 µM in experiment [7] (setting [26]) is 14%; in experiment [8] (setting [27]), 0.757%; in [9] (setting [28]), 4.32%; in experiment [10] (setting [29]) it was -1.88%; in experiment [11] (setting [30]), -3%; in experiment [12] (setting [31]), -5%. Also, the inhibition at 1 µM in experiment [13] (setting [32]) is 0.544%; in experiment [14] (setting [33]), -1.83%; in experiment [15] (setting [34]) it was -3.59%; in experiment [16] (setting [35]) it was -9%; in experiment [17] (setting [36]), 93%; in experiment [18] (setting [37]) it was -3.37%. For the same molecule, the inhibition at 1 µM in experiment [19] (setting [38]) worked out at 69%.
